Reference: patent US6849426B2, “Methods and reagents for detecting endotoxin” (Cambrex Bio Science Walkersville, Inc., priority 2001, dated 2005)

Assays:
Assay type in all cases: biochemical
[1] = target: T1, recombinant Factor C (rFC) (Carcinoscorpius rotundicauda, UniProt Q26422); assay: recombinant Factor C (rFC) assay with different detergents; details: for Detergent concentration range for rFC inhibition / Detergent concentration range for rFC enhancing: 1 EU/ml EC-6, DPR-coumarin substrate, 38° C., data after 30 minutes; for enhancing concentration range (narrow or wide): rFC assay
T1 construct: made in house; host or cells: Sf9 insect cells, baculovirus
T1 sequence (Q26422 26-1019): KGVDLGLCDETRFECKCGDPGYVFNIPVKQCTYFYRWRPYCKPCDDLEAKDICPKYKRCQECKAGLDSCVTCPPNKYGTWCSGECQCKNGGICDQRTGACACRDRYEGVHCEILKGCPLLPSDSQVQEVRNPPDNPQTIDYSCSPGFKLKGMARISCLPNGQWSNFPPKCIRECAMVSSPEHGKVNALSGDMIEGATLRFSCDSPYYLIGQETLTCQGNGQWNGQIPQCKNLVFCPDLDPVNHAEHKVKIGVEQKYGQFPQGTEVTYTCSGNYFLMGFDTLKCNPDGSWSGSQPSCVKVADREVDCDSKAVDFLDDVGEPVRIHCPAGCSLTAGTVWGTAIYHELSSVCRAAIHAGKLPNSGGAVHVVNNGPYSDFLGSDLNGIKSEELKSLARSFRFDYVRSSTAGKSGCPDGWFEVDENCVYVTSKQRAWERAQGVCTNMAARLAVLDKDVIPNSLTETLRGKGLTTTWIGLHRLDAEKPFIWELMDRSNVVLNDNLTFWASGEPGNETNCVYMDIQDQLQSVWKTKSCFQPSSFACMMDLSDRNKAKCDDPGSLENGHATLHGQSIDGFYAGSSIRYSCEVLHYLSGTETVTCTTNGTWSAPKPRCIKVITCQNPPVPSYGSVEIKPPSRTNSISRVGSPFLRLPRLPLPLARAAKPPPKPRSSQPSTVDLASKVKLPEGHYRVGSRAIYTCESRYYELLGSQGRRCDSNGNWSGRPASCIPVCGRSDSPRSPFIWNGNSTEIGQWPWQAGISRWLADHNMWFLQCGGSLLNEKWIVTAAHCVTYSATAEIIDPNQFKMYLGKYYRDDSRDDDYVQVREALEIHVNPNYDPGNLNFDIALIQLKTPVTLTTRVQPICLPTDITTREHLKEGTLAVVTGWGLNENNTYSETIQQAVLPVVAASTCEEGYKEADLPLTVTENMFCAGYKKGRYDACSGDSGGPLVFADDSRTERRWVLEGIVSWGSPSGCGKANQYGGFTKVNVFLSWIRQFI
Description: The recombinant Factor C (rFC) assay was carried out using 20 μl of each detergent (˜10× of final concentration), 150 μl of 1 EU/ml EC-6, 10 μl of rFC supernatant 031901I, 20 μl of 300 mM Tris, pH 8.0, and 20 μl of 0.55 mM DPR-coumarin substrate. The results of the assay were read at 38° C. using a Cytofluor reader set at 390/440 nm, 5 minutes per cycle, for 1 hour. The data were graphed after 30 minutes.

[2] = target: T2, recombinant Carcinoscorpius rotundicauda Factor C (Carcinoscorpius rotundicauda, UniProt Q26422); assay: two-step and one-step endotoxin assay (Examples 1 and 13); details: assay of Examples 1 and 13
T2 construct: made in house; host or cells: Sf9 insect cells, baculovirus (pFASTBAC1 bacmid); culture supernatant used without purification
T2 sequence (Q26422 26-1019): T1 sequence (Q26422 26-1019)
Description: Endotoxin was pre-incubated with culture medium containing recombinant Carcinoscorpius rotundicauda Factor C obtained from recombinant Factor C-producing Sf9 cells for 1 hour in assay buffer (30 mM Tris, pH 8.0, 30 mM NaCl, 0.3% lactose, and 0.0025% Zwittergent 3-14). The substrate N-t-Boc-Asp(Obzl)-Pro-Arg-7-Amido-4-methyl coumarin (DPR-coumarin) was added to the mixture to a final concentration of […]. The fluorescence generated from the cleavage of the substrate by activated Factor C was measured after 15-20 minutes. Results of a similar assay carried out using the substrate N-t-Boc-Val-Pro-Arg-7-Amido-4-methyl coumarin at a final concentration of 100 mM are shown in FIG. 5.
A one-step endotoxin assay can be carried out in a 96-well plate, using 100 μl each of blank and endotoxin standards. […] The plate is incubated at 37° C. for 1 hour. Excitation and emission are read at 390 and 440 nm, respectively, in a fluorescence microplate reader.

Recombinant Factor C = target: T3, Recombinant Factor C (Carcinoscorpius rotundicauda, UniProt Q26422); assay: one-step, 1-hour endpoint endotoxin assay with or without surfactant; details: assay buffer with or without 0.0125% Zwittergent; endotoxin 055:B5 0.01-10 EU/ml; FIG. 7
T3 construct: made in house; host or cells: Sf9 insect cells, baculovirus
T3 sequence (Q26422 26-1019): T1 sequence (Q26422 26-1019)
Description: A one-step, 1-hour endpoint assay was performed. Endotoxin 055:B5, 0.01, 0.1, 1, and 10 EU/ml were used for the standard curve. Blank and endotoxin standards (100 μl each) were added to a 96-well plate. […] This mixture was added into each blank and endotoxin standard. The fluorescence was recorded at time zero and time 1 hour. The difference in fluorescences (delta fluorescence) were normalized with the blank. Normalized delta fluorescence was then graphed against endotoxin concentration in a log-log scale. Each data point is the result of duplicate assays.

[3] = tested on: purified Limulus factor C; assay: Limulus Factor C activity at different Zwittergent concentrations; details: FIG. 6; compared with recombinant Factor C assay
Description: The enhancing/inhibiting effect of Zwittergent 3-14 was also tested using purified Limulus factor C (FIG. 6).
We isolated the factor C from Limulus and generated antisera against the protein. The Limulus lysate was first separated with a S-100 gel filtration followed by cation-ion exchange column. The fractions were assayed for factor C activity using the N-t-BOC-Val-Pro-Arg 7-Amido-4-methyl coumarin substrate. The Limulus factor C was purified 73 fold with 80% homogeneity as determined by enzyme assay and SDS-PAGE. The molecular weight of Limulus factor C was 117 kDa by SDS-PAGE under non-reducing conditions. […] A specific polyclonal antibody against the Limulus factor C was generated in rabbits. The anti-factor C purified IgG inhibited the activation of factor C by LPS but had no effect on the protease activity once the factor C was activated by LPS.

| Molecule | Detergent concentration range for rFC inhibition [1] | enhancing concentration range (narrow or wide) [1] | optimal concentration of the surfactant [2] [%] | increase of endotoxin detection sensitivity when surfactant was included (Recombinant Factor C) [fold] | enhancing/inhibiting effect on purified Limulus factor C [3] | Detergent concentration range for rFC enhancing [1] |
| --- | --- | --- | --- | --- | --- | --- |
| CCCCCCCCS[C@@H]1O[C@H](CO)[C@@H](O)[C@H](O)[C@H]1O [OTG, octyl-beta-D-thioglucoside] | >=0.5% | narrow | – | – | – | – |
| CCCCCCCCCCCCOS(=O)(=O)[O-].[Na+] [SDS] | >=0.0004% | – | – | – | – | – |
| CCCCCCCCCCCCCC[N+](C)(C)CCCS(=O)(=O)[O-] [Zwittergent 3-14, N-tetradecyl-N,N-dimethyl-3-ammonio-1-propanesulfonate] | >=0.004% | narrow | 0.0025 | 10 | A similar enhancing/inhibiting effect was observed | – |
| Triton X-100 | >=0.008% | narrow | – | – | – | – |
| polyoxyethylene (20) sorbitan monolaurate [Tween 20] | >0.5% | wide | – | – | – | 0.001-0.5% |
| polyoxyethylene (20) sorbitan monooleate [Tween 80] | >0.25% | wide | – | – | – | 0.001-0.25% |
